Source: EP4745138A1, “THIO-GLUTARIMIDO ISOINDOLINONE DERIVATIVE, BIFUNCTIONAL PROTEIN DEGRADER CONTAINING SAME, AND USES THEREOF” (Gluetacs Therapeutics (Shanghai) Co., Ltd., priority 2023, dated 2025)

Target: T1, human Cereblon WT GST-tagged protein (Homo sapiens, UniProt Q96SW2)
T1 construct: purchased CISBIO 64BDCRBNPEH
Assay: CRBN-binding affinity, HTRF (CEREBLON BINDING kit)
Conditions: for inhibition at 0.5 µM: read-out: Inhibition Rate at 0.5 µM (%); for inhibition at 2 µM: read-out: Inhibition Rate at 2 µM (%)
Text: The CEREBLON BINDING kits (specification: 10,000 tests; product number: Catalog # 64BDCRBNPEH; CISBIO company) was used to determine the CRBN binding ability of the compounds to be tested through a HTRF method (homogeneous time-resolved fluorescence). The specific methods are as follows: • 1. […] Specifically, diluent #9 (1X) solution was used as the diluent, and multiple concentration gradients were set. […] Into the 96-well plate, the diluted test compounds and corresponding detection reagents were added, resulting in final test compound concentrations of 2 µM and 0.5 µM, respectively. […] Then, 2.5 µL of human Cereblon WT GST-tagged protein solution was added to each well. Finally, 5 µL of the thoroughly mixed Thalidomide-Re reagent and GST Eu antibody working solution were added to each of the aforementioned wells. […] The blank control wells were sequentially added with 2.5 µL of diluent #9 (1X) solution, 2.5 µL of PROTAC binding buffer, and 5 µL of thoroughly mixed Thalidomide-Re reagent and GST Eu antibody working solution. • 4.

T1 sequence (Q96SW2 whole entry): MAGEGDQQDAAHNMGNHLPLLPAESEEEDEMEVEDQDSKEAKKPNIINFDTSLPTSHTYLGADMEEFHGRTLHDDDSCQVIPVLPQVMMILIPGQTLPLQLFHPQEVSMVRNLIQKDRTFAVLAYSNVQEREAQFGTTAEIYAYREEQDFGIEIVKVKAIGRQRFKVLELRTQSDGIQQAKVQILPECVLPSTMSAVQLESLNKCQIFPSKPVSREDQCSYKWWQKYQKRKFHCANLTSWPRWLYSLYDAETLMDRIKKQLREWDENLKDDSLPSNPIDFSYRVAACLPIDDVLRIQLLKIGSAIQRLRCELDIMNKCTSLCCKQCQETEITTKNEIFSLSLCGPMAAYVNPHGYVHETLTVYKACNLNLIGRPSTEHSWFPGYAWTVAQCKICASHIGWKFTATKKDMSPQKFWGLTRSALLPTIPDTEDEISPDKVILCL

inhibition at 0.5 µM	inhibition at 2 µM	SMILES
53 to 60%	60 to 80%	Nc1nc(Nc2ccc(S(=O)(=O)N3CCN(Cc4cccc5c4CN(C4CCC(=O)NC4=O)C5=S)CC3)cc2)nn1C(=O)c1c(F)cccc1F (stereo not drawn) [GT-08795, 3-(4-((4-((4-((5-amino-1-(2,6-difluorobenzoyl)-1H-1,2,4-triazol-3-yl)amino)phenyl)sulfony 1)piperazin-1-yl)methyl)-1-thioxoisoindolin-2-yl)piperidine-2,6-dione]
53 to 60%	60 to 80%	O=C1CCC(N2Cc3cc(CN4CCN(c5ccc(-c6cc(F)c7c(c6)C(=O)N(C(C(=O)Nc6nccs6)c6ncn8c6CCC8)C7)cc5)CC4)ccc3C2=S)C(=O)N1 (stereo not drawn) [GT-09423, 2-(6,7-dihydro-5H-pyrrolo[1,2-c]imidazol-1-yl)-2-(6-(4-(4-((2-(2,6-dioxopiperidin-3-yl)-1-thioxoisoindolin-5-yl)methyl)piperazin-1-yl)phenyl)-4-fluoro-1-oxoisoindolin-2-yl)-N-(thiazol-2-yl)acetamide]
60 to 80%	80 to 100%	CC(C)Nc1cc(-n2ccc3cc(C#N)cnc32)ncc1C(=O)NC1CCN(Cc2ccc3c(c2)CN(C2CCC(=O)NC2=O)C3=S)CC1 (stereo not drawn) [GT-05294, 6-(5-cyano-1H-pyrrolo[2,3-b]pyridin-1-yl)-N-(1-((2-(2,6-dioxopiperidin-3-yl)-1-thioxoisoindolin-5-yl)methyl)piperidin-4-yl)-4-(isopropylamino)nicotinamide]
53 to 60%	80 to 100%	O=C1CCC(N2Cc3cc(CN4CCN(c5ncc(C(=O)Nc6ccc(OC(F)(F)Cl)cc6)cc5-c5cc[nH]n5)CC4)ccc3C2=S)C(=O)N1 (stereo not drawn) [GT-08769, N-(4-(chlorodifluoromethoxy)phenyl)-6-(4-((2-(2,6-dioxopiperidin-3-yl)-1-thioxoisoindolin-5-yl)methyl)piperazin-1-yl)-5-(1H-pyrazol-3-yl)nicotinamide]
40 to 53%	60 to 80%	Cc1cc(-c2ccc3c4cnccc4n(C)c3c2)cnc1N1CCN(Cc2ccc3c(c2)CN(C2CCC(=O)NC2=O)C3=S)CC1 (stereo not drawn) [GT-08980, 3-(5-((4-(3-methyl-5-(5-methyl-5H-pyrido[4,3-b]indol-7-yl)pyridin-2-yl)piperazin-1-yl)methyl)-1-thioxoisoindolin-2-yl)piperidine-2,6-dione]
60 to 80%	80 to 100%	N#CC1(CNc2nc(-c3cc(NC4CCN(Cc5ccc6c(c5)C(=S)N(C5CCC(=O)NC5=O)C6)CC4)ncc3Cl)cs2)CCOCC1 (stereo not drawn) [GT-08750, 4-(((4-(5-chloro-2-((1-((2-(2,6-dioxopiperidin-3-yl)-3-thioxoisoindolin-5-yl)methyl)piperidin-4-yl)amino)pyridin-4-yl)thiazol-2-yl)amino)methyl)tetrahy dro-2H-pyran-4-carbonitrile]
80 to 100%	80 to 100%	CC(C)(O)c1cc2nc(C3CCN(Cc4ccc5c(c4)CN(C4CCC(=O)NC4=O)C5=S)CC3)sc2cc1NC(=O)c1cccc(C(F)(F)F)n1 (stereo not drawn) [GT-05298, N-(2-(1-((2-(2,6-dioxopiperidin-3-yl)-1-thioxoisoindolin-5-yl)methyl)piperidin-4-yl)-5-(2-hydroxypropan-2-yl)benzo[d]thiazol-6-yl)-6-(trifluoromethyl)picolinamide]
60 to 80%	80 to 100%	Nc1nnc(-c2cc(F)ccc2O)cc1N1CCN(Cc2ccc3c(c2)CN(C2CCC(=O)NC2=O)C3=S)CC1 (stereo not drawn) [GT-08712, 3-(5-((4-(3-amino-6-(5-fluoro-2-hydroxyphenyl)pyridazin-4-yl)piperazin-1-yl)methyl)-1-thioxoisoindolin-2-yl)piperidine-2,6-dione]
40 to 53%	60 to 80%	CCCc1cc(C)[nH]c(=O)c1CNC(=O)c1cc(-c2ccc(N3CCN(Cc4ccc5c(c4)CN(C4CCC(=O)NC4=O)C5=S)CC3)nc2)cc2c1cnn2C(C)C (stereo not drawn) [GT-08885, 6-(6-(4-((2-(2,6-dioxopiperidin-3-yl)-1-thioxoisoindolin-5-yl)methyl)piperazin-1-yl)pyridin-3-yl)-1-isopropyl-N-((6-methyl-2-oxo-4-propyl-1,2-dihydropyridin-3-yl)methyl)-1H-indazole-4-carboxamide]
40 to 53%	60 to 80%	Nc1ncnc2c1c(-c1ccc(Oc3ccccc3)cc1)nn2C1CCN(Cc2cccc3c2CN(C2CCC(=O)NC2=O)C3=S)CC1 (stereo not drawn) [GT-05074, 3-(4-((4-(4-amino-3-(4-phenoxyphenyl)-1H-pyrazolo[3,4-d]pyrimidin-1-yl)piperidin-1-yl)methyl)-1-thioxoisoindolin-2-yl)piperidine-2,6-dione]
60 to 80%	60 to 80%	Cn1c2ccncc2c2ccc(-c3cnc(N4CCN(Cc5ccc6c(c5)CN(C5CCC(=O)NC5=O)C6=S)CC4)c(Cl)c3)cc21 (stereo not drawn) [GT-08978, 3-(5-((4-(3-chloro-5-(5-methyl-5H-pyrido[4,3-b]indol-7-yl)pyridin-2-yl)piperazin-1-yl)methyl)-1-thioxoisoindolin-2-yl)piperidine-2,6-dione]
60 to 80%	80 to 100%	CCN(c1cc(-c2ccc(N3CCN(Cc4ccc5c(c4)CN(C4CCC(=O)NC4=O)C5=S)CC3)cc2)cc(C(=O)NCc2c(C)cc(C)[nH]c2=O)c1C)C1CCOCC1 (stereo not drawn) [GT-08887, N-((4,6-dimethyl-2-oxo-1,2-dihydropyridin-3-yl)methyl)-4'-(4-((2-(2,6-dioxopiperidin-3-yl)-1-thioxoisoindolin-5-yl)methyl)piperazin-1-yl)-5-(ethyl(tetrahydro-2H-pyran-4-yl)amino)-4-methyl-[1,1-biphenyl]-3-carboxamide]
40 to 53%	80 to 100%	COc1cc(N2CCC(N3CCN(Cc4cccc5c4CN(C4CCC(=O)NC4=O)C5=S)CC3)CC2)c(C)cc1Nc1ncc(Br)c(Nc2ccc3nccnc3c2P(C)(C)=O)n1 (stereo not drawn) [GT-05058, 3-(4-((4-(1-(4-((5-bromo-4-((5-(dimethylphosphoryl)quinoxalin-6-yl)amino)pyrimidin-2-yl)amino)-5-methoxy-2-methylphenyl)piperidin-4-yl)piperazin-1-yl)methyl)-1-thioxoisoindolin-2-yl)piperidine-2,6-dione]
60 to 80%	100 to 110%	COc1ccc2cn(C3CCN(Cc4ccc5c(c4)CN(C4CCC(=O)NC4=O)C5=S)CC3)nc2c1NC(=O)c1cccc(C(F)(F)F)c1 (stereo not drawn) [GT-09413, N-(2-(1-((2-(2,6-dioxopiperidin-3-yl)-1-thioxoisoindolin-5-yl)methyl)piperidin-4-yl)-6-methoxy-2H-indazol-7-yl)-3-(trifluoromethyl)benzamide]
60 to 80%	80 to 100%	Nc1nnc(-c2cc(F)ccc2O)cc1N1CCN(Cc2ccc3c(c2)C(=S)N(C2CCC(=O)NC2=O)C3)CC1 (stereo not drawn) [GT-08789, 3-(6-((4-(3-amino-6-(5-fluoro-2-hydroxyphenyl)pyridazin-4-yl)piperazin-1-yl)methyl)-1-thioxoisoindolin-2-yl)piperidine-2,6-dione]
80 to 100%	80 to 100%	Nc1nc(Nc2ccc(S(=O)(=O)N3CCN(Cc4ccc5c(c4)C(=S)N(C4CCC(=O)NC4=O)C5)CC3)cc2)nn1C(=O)c1c(F)cccc1F (stereo not drawn) [GT-08796, 3-(6-((4-((4-((5-amino-1-(2,6-difluorobenzoyl)-1H-1,2,4-triazol-3-yl)amino)phenyl)sulfonyl)piperazin-1-yl)methyl)-1-thioxoisoindolin-2-yl)piperidine-2,6-dione]
0 to 10%	10 to 20%	COc1cc(N2CCC(N3CCN(C)CC3)CC2)ccc1Nc1ncc(Cl)c(Nc2ccccc2P(C)(C)=O)n1 [Brigatinib, reference compound]

SMILES	inhibition at 0.5 µM	inhibition at 2 µM
Nc1nnc(-c2cc(F)ccc2O)cc1N1CC2CCC(C1)N2Cc1ccc2c(c1)CN(C1CCC(=O)NC1=O)C2=S (stereo not drawn) [GT-08713, 3-(5-((3-(3-amino-6-(5-fluoro-2-hydroxyphenyl)pyridazin-4-yl)-3,8-diazabicyclo[3.2.1]octan-8-yl)methyl)-1-thioxoisoindolin-2-yl)piperidine-2,6-dione]	40 to 53%	80 to 100%
